Consider five compounds from US20140242673A1, “CHEMICALLY DEFINED CULTURE MEDIUM FOR FERMENTATION TO PRODUCE SUCCINIC ACID AND APPLICATION THEREOF” (NANJING UNIVERSITY OF TECHNOLOGY, priority 2011, published 2014).

Type in all cases: cell-based
Experiment [1] has as its system Actinobacillus succinogenes NJ113 (CGMCC 1716). Description: Fermentation in defined medium with one growth factor missing (serum bottle, 30 h). As to conditions: for bacterial growth / glucose remaining / succinic acid production: culture medium lacks the named growth factor; for OD660 / Residual glucose / Succinic acid: medium lacking the named growth factor, 30 h, 37° C., 200 rpm. From the text:
To investigate the effect of critical factors on succinic acid production described by this invention can use any microorganism germ seed used for production of succinic acid using anaerobic fermentation in existing technology. This preferred embodiment uses NJ113 (Actinobacillus succinogenes NJ113), which has been patented (authorized publication No.: CN100537744C).
First, significance and effect of various amino acids, vitamins, and metallic microelements on bacterial growth and metabolism has been investigated on defined medium. Particular operation and cultivation conditions are as follows:
(1) Preparation of amino acid mixed liquids: Remove each one type of amino acid from the 18 types of amino acid being tested, to prepare a mixed liquid of remaining 17 types of amino acid of suitable concentration (suitable concentration refers to the concentration at which the substance of lowest solubility is completely dissolved), as well as a mixed liquid containing all 18 types of amino acid. Quantity of each such liquid is 100 mL. After filtration sterilization by 0.22 μm sterile filtering head, keep these liquids for later use. Refer to Attached Table 1 for contents of various amino acids in the culture medium.
(2) Preparation of vitamin mixed liquids: Using the method in […], remove each one type of vitamin from the 10 types of vitamin being tested, to prepare a mixed liquid of remaining 9 types of vitamin of suitable concentration (suitable concentration refers to the concentration at which the substance of lowest solubility is completely dissolved), as well as a mixed liquid containing all 10 types of vitamin. Quantity of each such liquid is 100 mL. After filtration sterilization by 0.22 μm sterile filtering head, keep these liquids for later use. Refer to Attached Table 1 for contents of various vitamins in the culture medium.
(3) Preparation of metallic microelement mixed liquids: Using the method in step (1), remove each one type of metal salt from the 12 types of metal salt being tested, to prepare a mixed liquid of remaining 11 types of metal salt of suitable concentration (suitable concentration refers to the concentration at which the substance of lowest solubility is completely dissolved), as well as a mixed liquid containing all 12 types of metal salt. Quantity of each such liquid is 100 mL. After sterilization at 121° C. for 15 min, keep these liquids for later use. Refer to Attached Table 1 for contents of various metal salts in the culture medium.
Conventional compositions of fermentation culture medium (g/L): 90 of glucose (separately sterilized), 1 of disodium fumarate, 2 of KH2PO4, 0.2 of MgCl2.6H2O, 0.2 of CaCl2, and 1 of NaCl; sterilized at pH of 7.0 and 121° C. for 15 min; sodium carbonate adopted as neutralizing agent.
In a 100 mL serum bottle, add […] of fermentation culture medium and 1 mL of Actinobacillus succinogenes NJ113 (CGMCC 1716) seed liquid that has been washed by sterilized water; sterilize at 121° C. for 15 min; and then add 4 mL of reserved mixed liquid not containing a type of amino acid, 0.5 mL of reserved mixed liquid containing all vitamins being tested, 1 mL of reserved mixed liquid containing all types of metal salt being tested, and […] of sterilized 600 g/L glucose, so that after inoculation, the total volume reaches 20 mL and glucose concentration is 30 g/L.
Use the same method to prepare fermentation culture medium that lacks a certain type of vitamin or metal salt.
Carry out fermentation of above culture media under the following conditions:
At mechanical shaker speed of 200 rpm and 37° C., allow fermentation for 30 h and then detect content of succinic acid in the fermentation liquid.

The next experiment has as its system Escherichia coli. Description: Production of succinic acid by fermentation at different biotin concentrations. The procedure:
This preferred embodiment reduces biotin consumption in the culture medium. Particular method of change of fermentation culture medium is described below.
Germ seed: Escherichia coli (strain from patent of publication No. CN102154339A)
Cultivation in fermenter: transfer activated seed liquid and sterilized glucose into fermenter; inoculum size shall be 5% (volume ratio); stirring speed shall be 200 rpm; allow fermentation at 37° C.; amount of CO2 connected shall be 0.25 vvm.
Conventional compositions of fermentation culture medium (g/L): 30 of glucose (separately sterilized), 2 of disodium fumarate, 3 of KH2PO4, 0.3 of MgCl2.6H2O, 0.23 of CaCl2, and 1 of NaCl; sterilized at pH of 7.0 and 121° C. for 15 min; sodium carbonate adopted as neutralizing agent.
In a 100 mL serum bottle, add 15 g/L of Na2HPO4, 4 g/L of KH2PO4, 13.1 mL of water, and 1 mL of Actinobacillus succinogenes NJ113 (CGMCC 1716) seed liquid after being washed by sterilized water; sterilize at 121° C. for 15 min, and then add 4 mL of reserved mixed liquid containing corresponding concentrations of amino acids, 0.5 mL of mixed liquid of vitamins including niacin and biotin so that […], 1 mL of reserved mixed liquid containing all metal salts being tested, and 0.4 mL of sterilized 500 g/L glucose solution, so that total volume after inoculation reaches 20 mL and glucose concentration is 10 g/L.
Fermentation experiment of above culture media containing different concentrations of biotin has been carried out under the same fermentation conditions as preferred embodiment 1:
According to identical germ seed, fermentation conditions, and experiment method of this preferred embodiment, biotin consumption in the culture medium is further lowered, to concentrations of 50 μg/L, 100 μg/L, 150 μg/L, 200 μg/L, and 300 μg/L respectively, for fermentation experiment: […]

For experiment [2], the system named is Mannheimia succiniciproducens MBEL55E. The experiment can be described thus: Production of succinic acid by fermentation with biotin replaced by 5-ALA. The procedure: In this preferred embodiment, biotin (10˜20 mg/L) in culture medium is replaced by 0.1˜1 mg/L of 5-ALA, for fermentation experiment.
The microorganism adopts large Mannheimia succiniciproducens MBEL55E (strain from patents of publication No. EP2096177 and No. EP2199304).
Cultivation in fermenter: transfer activated seed liquid and sterilized glucose into fermenter; inoculum size shall be 7% (volume ratio); stirring speed shall be 200 rpm; allow fermentation at 37° C.; amount of CO2 connected shall be 0.25 vvm.
Conventional compositions of fermentation culture medium (g/L): 10 of mixed carbohydrate obtained from pre-treated stalk (measured total carbohydrate concentration), 3 of disodium fumarate, 4 of KH2PO4, 0.4 of MgCl2.6H2O, 0.4 of CaCl2, and 2 of NaCl; sterilize at pH value of 7.0 and 121° C. for 15 min; ammonia is adopted as neutralizing agent.

Where [3] appears, read: 5-ALA 0.1~1 mg/L replacing biotin.

In the case of `CSCC[C@H](N)C(=O)O` [Methionine], in experiment [1], the bacterial growth entry is given as “relatively poor”, the glucose remaining entry is listed as “large amount of glucose remains”, the succinic acid production result is “very low” and the OD660 was found to be 0.6. Besides, in experiment [1], the Residual glucose is 4.3 g/L and the Succinic acid was 1.3 g/L.

As to `N[C@@H](CCC(=O)O)C(=O)O` [Glutamic acid], in experiment [1], the bacterial growth entry is given as “relatively poor”, the glucose remaining entry was “large amount of glucose remains”, the succinic acid production result is “very low” and the OD660 is on record as 0.4. In experiment [1], this compound showed a Residual glucose of 8.1 g/L and a Succinic acid of 0.5 g/L.

Turning to `O=C(O)c1cccnc1` [Niacin], in experiment [1], the bacterial growth result is reported as “relatively poor”, the glucose remaining result was “large amount of glucose remains”, the succinic acid production entry is reported as “very low” and the OD660 was 0.2. In experiment [1], the Residual glucose was 5.6 g/L and the Succinic acid turned out to be 0.1 g/L.

As for `O=C(O)CCCC[C@@H]1SC[C@@H]2NC(=O)N[C@@H]21` [Biotin, biotin], the Residual glucose came out at 23 g/L with Escherichia coli (biotin 50 μg/L); 2.2 g/L in the experiment with Escherichia coli (biotin 100 μg/L); 2.6 g/L with Escherichia coli (biotin 150 μg/L); 2.5 g/L in the experiment with Escherichia coli (biotin 200 μg/L); 2.8 g/L in the experiment with Escherichia coli (biotin 300 μg/L); 0 g/L in the experiment on Escherichia coli (biotin 2 mg/L). Also, the Residual glucose with Escherichia coli (biotin 4 mg/L) is listed as 0 g/L; with Escherichia coli (biotin 6 mg/L) it was 0 g/L; with Escherichia coli (biotin 8 mg/L) it was 0 g/L; with Escherichia coli (biotin 10 mg/L), 0 g/L; with Escherichia coli (biotin 20 mg/L) it was 0 g/L; in experiment [1], 6.9 g/L. For the same compound, the Succinic acid in the experiment with Escherichia coli (biotin 50 μg/L) is on record as 1.6 g/L; in the experiment with Escherichia coli (biotin 100 μg/L) it was 15.8 g/L; in the experiment with Escherichia coli (biotin 150 μg/L) it was 16.2 g/L; in the experiment with Escherichia coli (biotin 200 μg/L) it was 16.8 g/L; in the experiment with Escherichia coli (biotin 300 μg/L), 16.7 g/L; in the experiment on Escherichia coli (biotin 2 mg/L), 18.8 g/L. In addition, the Succinic acid with Escherichia coli (biotin 4 mg/L) was determined as 18.6 g/L; in the experiment on Escherichia coli (biotin 6 mg/L) it was 17.7 g/L; with Escherichia coli (biotin 8 mg/L) it was 19.4 g/L; with Escherichia coli (biotin 10 mg/L) it was 18.7 g/L; in the experiment on Escherichia coli (biotin 20 mg/L), 18.5 g/L; in experiment [1] it was 0.7 g/L. Moreover, the bacterial growth entry in experiment [1] was “relatively poor”. Besides, the glucose remaining result in experiment [1] is given as “large amount of glucose remains”. For the same compound, in experiment [1], the succinic acid production result is given as “very low”. In addition, the OD660 in experiment [1] amounted to 0.3.

As for `NCC(=O)CCC(=O)O` [5-ALA, 5-aminolevulinate], in experiment [2] (setting [3]), the Residual glucose is listed as 3.4 g/L and the Succinic acid came to 15.6 ± 0.2 g/L. Moreover, the “output of succinic acid compared with biotin” value in experiment [2] (biotin completely replaced by 5-ALA) is “can realize the highest output of succinic acid that can be obtained using biotin”.
